Series [1] has as its system Escherichia coli. In words: Antimicrobial activity against Escherichia coli AS 1.349 assessed as induction of outer membrane permeabilization by measuring NPN uptake up to 50 uM by fluorescence assay. In kind it is functional, organism-based.
For series [2], the system named is Staphylococcus aureus. In words: Antimicrobial activity against Staphylococcus aureus AS 1.72 assessed as induction of outer membrane permeabilization by measuring NPN uptake up to 50 uM by fluorescence assay. In kind it is functional, organism-based.
The test system of series [3] is Lipid bilayer. In words: Induction of membrane permeabilization in calcein loaded LPS/PC/PG large unilamellar vesicles assessed as calcein leakage after 15 mins by fluorescence assay.
Series [4] has as its system Lipid bilayer. Kind of series: Induction of membrane permeabilization in calcein loaded PG/CL/PE large unilamellar vesicles assessed as calcein leakage at 6 uM after 15 mins by fluorescence assay relative to control.
Series [5] concerns Lipid bilayer. Kind of series: Induction of membrane permeabilization in calcein loaded PG/CL large unilamellar vesicles assessed as calcein leakage at 6 uM after 15 mins by fluorescence assay relative to control.
In series [6] the test system is Lipid bilayer. In words: Induction of membrane permeabilization in calcein loaded PG/CL/PE large unilamellar vesicles assessed as calcein leakage at 3 uM after 10 mins by fluorescence assay relative to control.
In series [7] the test system is Lipid bilayer. Kind of series: Induction of membrane permeabilization in calcein loaded PG/CL large unilamellar vesicles assessed as calcein leakage at 3 uM after 10 mins by fluorescence assay relative to control.
Series [8] relates to Escherichia coli. In words: Antimicrobial activity against Escherichia coli AS 1.349 assessed as induction of outer membrane permeabilization by measuring NPN uptake by fluorescence assay. The class given is functional, organism-based.
The subject of series [9] is Staphylococcus aureus. Kind of series: Antimicrobial activity against Staphylococcus aureus AS 1.72 assessed as induction of outer membrane permeabilization by measuring NPN uptake by fluorescence assay. In kind it is functional, organism-based.
For series [10], the system named is Escherichia coli. Kind of series: Antimicrobial activity against Escherichia coli AS 1.349 assessed as induction of bacterial cytoplasmic membrane depolarization at 2 times MIC after 6 mins by diSC3-5 dye-based fluorescence assay. The class given is functional, organism-based.
The subject of series [11] is Staphylococcus aureus. In words: Antimicrobial activity against Staphylococcus aureus AS 1.72 assessed as induction of bacterial cytoplasmic membrane depolarization at 2 times MIC after 5 mins by diSC3-5 dye-based fluorescence assay. The class given is functional, organism-based.
Series [12] is described as follows: Hemolytic activity against human erythrocytes after 1 hr. In kind it is ADME, cell-based, Erythrocyte.
The test system of the next series is MCF7. Kind of series: Cytotoxicity against human MCF7 cells assessed as reduction in cell viability after 1 hr by MTT assay. The following applies: MCF7, 1 h. In kind it is functional, cell-based. (Formazan colour is commonly taken as a measure of viable cells.)
Another series deals with A-375. In words: Cytotoxicity against human A375 cells assessed as reduction in cell viability after 1 hr by MTT assay. The class given is functional, cell-based. The settings on record: A-375, 1 h.
In another series the test system is HeLa. In words: Cytotoxicity against human HeLa cells assessed as reduction in cell viability after 1 hr by MTT assay. The class given is functional, cell-based.
Another series relates to Enterococcus faecalis. Kind of series: Antimicrobial activity against Enterococcus faecalis CGMCC 1.595 after 18 hrs by micro dilution method. The settings on record: CGMCC 1.595, 18 h. In kind it is functional.
The subject of a further series is Enterococcus faecium. In words: Antimicrobial activity against Enterococcus faecium CGMCC 1.2334 after 18 hrs by micro dilution method. In kind it is functional. The following applies: CGMCC 1.2334, 18 h.
The next series concerns Lactococcus lactis. In words: Antimicrobial activity against Streptococcus lactis AS 1.1690 after 18 hrs by micro dilution method. In kind it is functional. The settings on record: AS 1.1690, 18 h.
The next series deals with Bacillus cereus. Kind of series: Antimicrobial activity against Bacillus cereus AS 1.126 after 18 hrs by micro dilution method. In kind it is functional. The settings on record: AS 1.126, 18 h.
For series [13], the system named is Staphylococcus aureus. Kind of series: Antimicrobial activity against Staphylococcus aureus AS 1.72 after 18 hrs by micro dilution method. The class given is functional. The settings on record: AS 1.72, 18 h.
A further series deals with Pseudomonas aeruginosa. Kind of series: Antimicrobial activity against Pseudomonas aeruginosa CGMCC 1.860 after 18 hrs by micro dilution method. In kind it is functional. The following applies: CGMCC 1.860, 18 h.
Series [14] concerns Escherichia coli. In words: Antimicrobial activity against Escherichia coli AS 1.349 after 18 hrs by micro dilution method. The following applies: AS 1.349, 18 h. The class given is functional.
Series [15] deals with Lipid bilayer. Kind of series: Induction of membrane permeabilization in calcein loaded LPS/PC/PG large unilamellar vesicles assessed as calcein leakage at 50 uM after 15 mins by fluorescence assay relative to control.
The test system of series [16] is Lipid bilayer. In words: Induction of membrane permeabilization in calcein loaded PC/cholesterol large unilamellar vesicles assessed as calcein leakage at 50 uM after 10 mins by fluorescence assay relative to control.
Series [17] relates to Lipid bilayer. In words: Induction of membrane permeabilization in PC/cholesterol large unilamellar vesicles assessed as blue shift by Tryptophan fluorescence spectroscopy.
Series [18] has as its system Lipid bilayer. In words: Induction of membrane permeabilization in PG/CL/PE large unilamellar vesicles assessed as blue shift at compound to lipid ratio of 10 by Tryptophan fluorescence spectroscopy.
For series [19], the system named is Lipid bilayer. In words: Induction of membrane permeabilization in PG/CL large unilamellar vesicles assessed as blue shift at compound to lipid ratio of 60 by Tryptophan fluorescence spectroscopy.
The test system of series [20] is U-937. In words: Antiinflammatory activity in human U937 cells assessed as inhibition of LPS-induced TNF-alpha production after 24 hrs by ELISA. In kind it is functional, cell-based. A general note: ELISA stands for enzyme-linked immunosorbent assay.
For series [21], the system named is U-937. In words: Antiinflammatory activity in human U937 cells assessed as inhibition of LPS-induced IL-6 production after 24 hrs by ELISA. In kind it is functional, cell-based.
For series [22], the system named is U-937. Kind of series: Antiinflammatory activity in human U937 cells assessed as inhibition of LPS-induced TNF-alpha production at 12.6 uM after 24 hrs by ELISA relative to control. The class given is functional. The following applies: U-937, 24 h.
The test system of series [23] is U-937. In words: Antiinflammatory activity in human U937 cells assessed as inhibition of LPS-induced TNF-alpha production at 6.25 uM after 24 hrs by ELISA relative to control. The class given is functional. The settings on record: U-937, 24 h.
Series [24] has as its system U-937. In words: Antiinflammatory activity in human U937 cells assessed as inhibition of LPS-induced TNF-alpha production at 3.13 uM after 24 hrs by ELISA relative to control. The class given is functional. The following applies: U-937, 24 h.
Series [25] has as its system U-937. In words: Antiinflammatory activity in human U937 cells assessed as inhibition of LPS-induced IL-6 production at 12.6 uM after 24 hrs by ELISA relative to control. In kind it is functional. The following applies: U-937, 24 h.
Series [26] has as its system U-937. In words: Antiinflammatory activity in human U937 cells assessed as inhibition of LPS-induced IL-6 production at 6.25 uM after 24 hrs by ELISA relative to control. In kind it is functional. The settings on record: U-937, 24 h.
In series [27] the test system is U-937. In words: Antiinflammatory activity in human U937 cells assessed as inhibition of LPS-induced IL-6 production at 3.13 uM after 24 hrs by ELISA relative to control. In kind it is functional. The settings on record: U-937, 24 h.
Series [28] in a line: Cytotoxicity against human U937 cells assessed as cell viability at 3.13 to 12.6 uM after 1 hr by MTT assay relative to control. The class given is cell-based, U-937. The following applies: read-out: Activity.
Series [29] relates to Lipopolysaccharide (LPS). In words: Binding affinity to Escherichia coli 0111:B4 LPS assessed as equilibrium association constant by ITC method. In general terms: Isothermal titration calorimetry measures the heat released or taken up as one component is titrated into another.
The test system of series [30] is Lipopolysaccharide (LPS). In words: Binding affinity to Escherichia coli 0111:B4 LPS by ITC method.
Series [31] has as its system Lipopolysaccharide (LPS). Kind of series: Induction of LPS micelles disaggergation assessed as abundant particle size formation at 2 uM by DLS method.
Series [32] in a line: Self-assembly property assessed as diameter of monodispersed micelles at 1 mg/ml at pH 7 by TEM analysis. In kind it is physicochemical.
Series [33] is described as follows: Self-assembly property assessed as diameter of monodispersed micelles at 1 mg/ml at pH 7 readjusted from pH 2 by TEM analysis. The class given is physicochemical.

pIC50, pKd: −log10 of the molar value. ≈ marks a conversion by molar mass, not a printed value. Calls of active or inactive are those of the source. The rule behind the calls is not given here. Peptide text beside a SMILES is read from it. * marks the point of attachment. Lauroyl = CCCCCCCCCCCC(=O)* A value given as a limit tells only on which side of the number the result lay.

Take GENTAMICIN: the outcome in the series with Escherichia coli [1] and in the series on Staphylococcus aureus [2] was Active.

Regarding `CCCCCCCCCCCC(=O)N[C@@H](CO)C(=O)N[C@@H](CCCCN)C(=O)N[C@H](C(=O)N[C@@H](Cc1c[nH]c2ccccc12)C(=O)N[C@@H](CCCNC(=N)N)C(=O)N[C@@H](Cc1cnc[nH]1)C(=O)N[C@@H](Cc1c[nH]c2ccccc12)C(=O)N[C@@H](CCCNC(=N)N)C(=O)N[C@@H](CCCNC(=N)N)C(=O)N[C@@H](Cc1ccccc1)C(=O)N[C@@H](Cc1c[nH]c2ccccc12)C(=O)N[C@@H](Cc1cnc[nH]1)C(=O)N[C@@H](CCCNC(=N)N)C(=O)N[C@@H](C)C(=O)N[C@@H](Cc1cnc[nH]1)C(=O)N[C@@H](CCCNC(=N)N)C(=O)N[C@@H](CCCCN)C(=O)N[C@@H](CC(C)C)C(=O)O)C(C)C` (Lauroyl-SKVWRHWRRFWHRAHRKL-OH), the Activity entry in the series on Lipid bilayer [3] was “Dose-dependent effect”; with Lipid bilayer [4] it was 54%; with Lipid bilayer [5], 81%; in the series with Lipid bilayer [6], 42%; with Lipid bilayer [7], 64%; in the series on Escherichia coli [8], “Dose-dependent effect”. Further, the Activity entry in the series on Staphylococcus aureus [9] was “Dose-dependent effect”; in the series on Lipid bilayer [15] it was 58%; with Lipid bilayer [16], 20%; in the series on Lipid bilayer [18], 16 nm; with Lipid bilayer [19] it was 20 nm; with Lipopolysaccharide (LPS) [31], 350 nm. In addition, the Activity in [32] is 66 nm; in [33] it was 108 nm. Moreover, the result in the series with Escherichia coli [10] and in the series with Staphylococcus aureus [11] was Active. The HC50 – broadly, the concentration that lyses half of the red blood cells – at 1 h in series [12] was greater than 500 µM. Also, the figures for the pIC50 with MCF7, with A-375 and in the series on HeLa were 4.59, 4.67 and 4.69, respectively. Also, the MIC (commonly the least concentration at which growth counts as inhibited) with Enterococcus faecalis is 3.13 µM (≈ 8.53 µg/mL); in the series with Enterococcus faecium it was 1.56 µM (≈ 4.25 µg/mL); in the series with Lactococcus lactis, 3.13 µM (≈ 8.53 µg/mL); against Bacillus cereus, 3.13 µM (≈ 8.53 µg/mL); against Staphylococcus aureus [13], 3.13 µM (≈ 8.53 µg/mL); in the series with Pseudomonas aeruginosa it was 1.56 µM (≈ 4.25 µg/mL). Besides, in the series with Escherichia coli [14], the minimal inhibitory concentration (MIC) turned out to be 6.25 µM (≈ 17 µg/mL). In the series with Lipid bilayer [17], the outcome was inactive. Moreover, the inhibition result in the series on U-937 [20] and in the series with U-937 [21] was “Dose-dependent effect” each time. The inhibition (in general, how much of the control response was suppressed) at 12.6 µM was 31% with U-937 [22] and 33% with U-937 [25]. For the same compound, the inhibition at 6.25 µM in the series on U-937 [23] worked out at 27%; with U-937 [26], 29%. Further, the results for the inhibition at 3.13 µM in the series with U-937 [24] and in the series with U-937 [27] were 26% and 17%, respectively. The viability at 1 h, up to 12.6 µM in series [28] came out at 80%. In the series on Lipopolysaccharide (LPS) [29], the Ka was determined as 136 mM⁻¹. In addition, in the series on Lipopolysaccharide (LPS) [30], the pKd (usually the Kd on a negative log10 scale, so that one unit is a factor of ten) is 5.13.

(Values after ChEMBL document CHEMBL4229350, “Antimicrobial activity and self-assembly behavior of antimicrobial peptide chensinin-1b with lipophilic alkyl tails” (Eur J Med Chem, 2018).)
